Laboratory results from patent US20230146455A1, “TREATMENT OF INFLAMMATORY DISEASES WITH PEPTIDES AND PHARMACEUTICAL COMPOSITIONS” (Yuyu Pharma, Inc., priority 2020, published 2023).
Where “and” joins values, the source holds several entries; their conditions need not be identical. Equal entries are not always repeated. Where a SMILES comes first, the peptide text is derived from it. [ ]: non-standard residue; d: D form. Hyp = O=C(O)[C@@H]1C[C@@H](O)CN1

System: human PBMCs
Assay: PBMC cell counts (total, live, viability; trypan blue, Countess) with and without LPS and test articles (Example 9)
Assay type: cell-based
Experimental: Treatment Human PBMCs were pretreated with YY-101, YDE-011 and YDE-043 or reference compound; Xiidra® at various concentration (ranging from 1 nM to 100 uM) for 2 h before stimulation. An equal volume of 0.5% DMSO was used as a vehicle control. Then, the cells were treated with LPS at 5 ug/ml. The supernatants from treated cells were harvested at 24 h and placed in a 96 well for Luminex cytokine & chemokine profiling using a Luminex 200 multiplex assay (Luminex; R&D system, USA).
The main study arm with triplicate wells per group in a 24-well plate: • 1. Blank • 2. PBMC: 0.5% DMSO • 3. PBMC+LPS (5 ug/ml) • 4. PBMC+YY-101 100 uM • 5. PBMC+YY-101 10 uM • 6. PBMC+YY-101 1 uM • 7. PBMC+YY-101 0.1 uM • 8. PBMC+YY-101 0.01 uM • 9. PBMC+LPS (5 ug/ml)+Xiidra®100 uM • 10. PBMC+LPS (5 ug/ml)+Xiidra® 10 uM • 11. PBMC+LPS (5 ug/ml)+Xiidra® 1 uM • 12. PBMC+LPS (5 ug/ml)+Xiidra®0.1 uM • 13. PBMC+LPS (5 ug/ml)+Xiidra®0.01 uM • 14. PBMC+LPS (5 ug/ml)+Xiidra®0.001 uM • 15. PBMC+LPS (5 ug/ml)+YY-101 100 uM • 16. PBMC+LPS (5 ug/ml)+YY-101 10 uM • 17. PBMC+LPS (5 ug/ml)+YY-101 1 uM • 18. PBMC+LPS (5 ug/ml)+YY-101 0.1 uM • 19. PBMC+LPS (5 ug/ml)+YY-101 0.01 uM • 20. PBMC+LPS (5 ug/ml)+YY-101 0.001 uM • 21. PBMC+LPS (5 ug/ml)+YDE-011 100 uM • 22. PBMC+LPS (5 ug/ml)+YDE-011 10 uM • 23. PBMC+LPS (5 ug/ml)+YDE-011 1 uM • 24. PBMC+LPS (5 ug/ml)+YDE-011 0.1 uM • 25. PBMC+LPS (5 ug/ml)+YDE-011 0.01 uM • 26. PBMC+LPS (5 ug/ml)+YDE-011 0.001 uM • 27. PBMC+LPS (5 ug/ml)+YDE-043 100 uM • 28. PBMC+LPS (5 ug/ml)+YDE-043 10 uM • 29. PBMC+LPS (5 ug/ml)+YDE-043 1 uM • 30. PBMC+LPS (5 ug/ml)+YDE-043 0.1 uM • 31. PBMC+LPS (5 ug/ml)+YDE-043 0.01 uM • 32. PBMC+LPS (5 ug/ml)+YDE-043 0.001 uM
The number of PBMCs was measured after 24 hr of treatment. The culture both and trypan blue were diluted 1:1 and 10 ul was added to Countess cell counting chamber (Thermo fisher, USA). The number of PBMCs was measured using a Countess automated cell counter (Thermo fisher, USA).

[1] = PBMC + LPS(5 ug/ml) + compound 0.001 uM, 24 hr
[2] = PBMC + LPS(5 ug/ml) + compound 0.01 uM, 24 hr
[3] = PBMC + LPS(5 ug/ml) + compound 0.1 uM, 24 hr
[4] = PBMC + LPS(5 ug/ml) + compound 1 uM, 24 hr
[5] = PBMC + LPS(5 ug/ml) + compound 10 uM, 24 hr
[6] = PBMC + LPS(5 ug/ml) + compound 100 uM, 24 hr
[7] = PBMC + LPS(5 ug/ml) + test article 0.001 uM, Mean
[8] = PBMC + LPS(5 ug/ml) + test article 0.001 uM, single replicates
[9] = PBMC + LPS(5 ug/ml) + test article 0.01 uM, Mean
[10] = PBMC + LPS(5 ug/ml) + test article 0.01 uM, single replicates
[11] = PBMC + LPS(5 ug/ml) + test article 0.1 uM, Mean
[12] = PBMC + LPS(5 ug/ml) + test article 0.1 uM, single replicates
[13] = PBMC + LPS(5 ug/ml) + test article 1 uM, Mean
[14] = PBMC + LPS(5 ug/ml) + test article 1 uM, single replicates
[15] = PBMC + LPS(5 ug/ml) + test article 10 uM, Mean
[16] = PBMC + LPS(5 ug/ml) + test article 10 uM, single replicates

CC(C)C[C@H](NC(=O)CNC(=O)[C@H](CC(C)C)NC(=O)[C@H](CCC(N)=O)NC(=O)CNC(=O)[C@@H]1C[C@@H](O)CN1)C(=O)N[C@@H](C)C(=O)NCC(=O)N1CCC[C@H]1C(=O)N[C@@H](CCCCN)C(=O)O [YDE-011] (H-[Hyp]GQLGLAGPK-OH)
Live cell [1]: 5.4 ± 0.4 10^5/ml
Total cell [1]: 6.3 ± 0.2 10^5/ml
Live cell [2]: 5.9 ± 0.4 10^5/ml
Total cell [2]: 7.3 ± 0.4 10^5/ml
Live cell [3]: 5.8 ± 0.5 10^5/ml
Total cell [3]: 7.1 ± 0.7 10^5/ml
Live cell [4]: 5.0 ± 0.2 10^5/ml
Total cell [4]: 6.4 ± 0.3 10^5/ml
Live cell [5]: 5.3 ± 0.3 10^5/ml
Total cell [5]: 6.0 ± 0.4 10^5/ml
Live cell [6]: 6.1 ± 0.0 10^5/ml
Total cell [6]: 8.2 ± 0.4 10^5/ml
Live cell [7]: 5.4 10^5/ml
Live cell (10^5/ml) [7]: 5.4 10^5/ml
Live cell, Mean [7]: 5.4 10^5/ml
Live cell (PBMC + LPS(5 ug/ml) + test article 0.001 uM, individual replicates): 4.5 10^5/ml and 5.8 10^5/ml (2×)
Live cell (PBMC + LPS(5 ug/ml) + test article 0.001 uM, individual replicates (1st, 2nd, 3rd)): 4.5 10^5/ml and 5.8 10^5/ml (2×)
Live cell [8]: 4.5 10^5/ml and 5.8 10^5/ml (2×)
Live cell (10^5/ml) [8]: 4.5 10^5/ml and 5.8 10^5/ml (2×)
Live cell (PBMC + LPS(5 ug/ml) + test article 0.001 uM, single replicates (1st, 2nd, 3rd)): 4.5 10^5/ml and 5.8 10^5/ml (2×)
Live cell [9]: 5.9 10^5/ml
Live cell (10^5/ml) [9]: 5.9 10^5/ml
Live cell, Mean [9]: 5.9 10^5/ml
Live cell (PBMC + LPS(5 ug/ml) + test article 0.01 uM, individual replicates): 6.2 10^5/ml and 5.1 10^5/ml and 6.3 10^5/ml
Live cell (PBMC + LPS(5 ug/ml) + test article 0.01 uM, individual replicates (1st, 2nd, 3rd)): 6.2 10^5/ml and 5.1 10^5/ml and 6.3 10^5/ml
Live cell [10]: 6.3 10^5/ml and 6.2 10^5/ml and 5.1 10^5/ml
Live cell (10^5/ml) [10]: 6.3 10^5/ml and 6.2 10^5/ml and 5.1 10^5/ml
Live cell (PBMC + LPS(5 ug/ml) + test article 0.01 uM, single replicates (1st, 2nd, 3rd)): 6.2 10^5/ml and 5.1 10^5/ml and 6.3 10^5/ml
Live cell [11]: 5.8 10^5/ml
Live cell (10^5/ml) [11]: 5.8 10^5/ml
Live cell, Mean [11]: 5.8 10^5/ml
Live cell (PBMC + LPS(5 ug/ml) + test article 0.1 uM, individual replicates): 6.6 10^5/ml and 5.0 10^5/ml and 5.7 10^5/ml
Live cell (PBMC + LPS(5 ug/ml) + test article 0.1 uM, individual replicates (1st, 2nd, 3rd)): 6.6 10^5/ml and 5.0 10^5/ml and 5.7 10^5/ml
Live cell [12]: 6.6 10^5/ml and 5.0 10^5/ml and 5.7 10^5/ml
Live cell (10^5/ml) [12]: 6.6 10^5/ml and 5.0 10^5/ml and 5.7 10^5/ml
Live cell (PBMC + LPS(5 ug/ml) + test article 0.1 uM, single replicates (1st, 2nd, 3rd)): 6.6 10^5/ml and 5.0 10^5/ml and 5.7 10^5/ml
Live cell [13]: 5.0 10^5/ml
Live cell (10^5/ml) [13]: 5.0 10^5/ml
Live cell, Mean [13]: 5.0 10^5/ml
Live cell (PBMC + LPS(5 ug/ml) + test article 1 uM, individual replicates): 5.5 10^5/ml and 4.8 10^5/ml (2×)
Live cell (PBMC + LPS(5 ug/ml) + test article 1 uM, individual replicates (1st, 2nd, 3rd)): 5.5 10^5/ml and 4.8 10^5/ml (2×)
Live cell [14]: 5.5 10^5/ml and 4.8 10^5/ml (2×)
Live cell (10^5/ml) [14]: 5.5 10^5/ml and 4.8 10^5/ml (2×)
Live cell (PBMC + LPS(5 ug/ml) + test article 1 uM, single replicates (1st, 2nd, 3rd)): 5.5 10^5/ml and 4.8 10^5/ml (2×)
Live cell [15]: 5.3 10^5/ml
Live cell (10^5/ml) [15]: 5.3 10^5/ml
Live cell, Mean [15]: 5.3 10^5/ml
Live cell (PBMC + LPS(5 ug/ml) + test article 10 uM, individual replicates): 5.4 10^5/ml and 5.8 10^5/ml and 4.7 10^5/ml
Live cell (PBMC + LPS(5 ug/ml) + test article 10 uM, individual replicates (1st, 2nd, 3rd)): 5.4 10^5/ml and 5.8 10^5/ml and 4.7 10^5/ml
Live cell [16]: 5.4 10^5/ml and 5.8 10^5/ml and 4.7 10^5/ml
Live cell (10^5/ml) [16]: 5.4 10^5/ml and 5.8 10^5/ml and 4.7 10^5/ml
